Patent publication US20230129788A1, “GLP-1/GLP-2 DUAL AGONISTS” (Zealand Pharma A/S, priority 2020, published 2023)
Starred links: 1 amine or outer side, 2 acyl side, 3 side chain; linkers in the order of their positions; H or OH if unused. Non-standard residues stand in square brackets, D forms with d. Groups on a side chain read outwards from the residue. *: point of attachment. C18 diacid = O=C(O)CCCCCCCCCCCCCCCCC(=O)*; γGlu = O=C(O)[C@H](CCC(=O)[*:2])N[*:1]; Aib = CC(C)(N)C(=O)O

Assays:
[1] = tested on: Total Parental Nutrition (TPN) Piglet Model; test: Small intestine mass (weight per centimeter) in total parenteral nutrition (TPN) piglet model; assay type: in vivo; details: piglets on TPN
Protocol: (§1) One-week-old piglets were placed in heated (25-30° C.) cages. Jugular and duodenal catheters were surgically implanted as described in paragraph 2 (method and material) in Jain 2015. Subsequently, preconditioned jackets and ambulatory pumps for TPN (total parenteral nutrition) delivery were fitted. Animals were started on their randomly assigned groups to receive enteral nutrition (EN; n=11), intravenous total parenteral nutrition plus vehicle (TPN; n=8) or TPN plus compound 18 (Cpd 18; n=13). Cpd 18 and vehicle were administered as daily subcutaneous injections at a dose of either 0.008 mg/kg (n=2), 0.033 mg/kg (n=2), 0.066 mg/kg (n=2) or 0.133 mg/kg (n=7).
(§2) Enteral animals (EN) received a swine milk replacement formula (formula LitterLife as described in Jain 2015, paragraph 2.6). All other animals received total parenteral nutrition (Clinimix E from Baxter as described in Jain 2015, paragraph 2.6).
Post-euthanasia (see Jain 2015, paragraph 2.7), the abdomen was opened, and the small intestine was removed. Small segments of the small bowel were sliced and weighed (see Jain 2015, paragraph 2.78). Tissue was then cut into smaller pieces, preserved for histology and snap-frozen in liquid nitrogen to be stored at −80° C. for analysis.

[2] = tested on: Total Parental Nutrition (TPN) Piglet Model; test: Histology of small bowel, villous/crypt (V/C) ratio, in total parenteral nutrition (TPN) piglet model; assay type: in vivo, piglets
Protocol: as §1, §2
Segments of fresh tissue (2-3 cm) from the small intestine were fixed in 4% buffered formalin for 24 hours and then stored in 70% ethanol at room temperature for 24 hours. […] Using the small-bowel H&E slides, the mean villous height and crypt depth were quantified in vertically well-oriented villous-crypt columns with the slide reviewer blinded to the treatment to compute a villous/crypt (V/C) ratio for animals in each group.

“H-H[Aib]EGSFTSELATILDK([γGlu-C18 diacid])QAARDFIAWLIQHKITD-OH [Cpd 18]” was tested, and the “mass of the proximal intestine (weight per centimeter)” value ([1]; daily subcutaneous injections 0.008, 0.033, 0.066 or 0.133 mg/kg, sacrifice on day 14, FIG. 1) was “preserved the mass in a dose-dependent fashion”, the “mass of the distal intestine (weight per centimeter)” value ([1]; daily subcutaneous injections 0.008, 0.033, 0.066 or 0.133 mg/kg, sacrifice on day 14, FIG. 2) was “preserved the mass in a dose-dependent fashion” and the “weight of the proximal intestine at the highest dose compared to animals on EN” value ([1]; highest dose (0.133 mg/kg daily s.c.), sacrifice on day 14, FIG. 1) was “approximately the same as in the animals on EN”. For the same substance, the “weight of the distal intestine at the highest dose, greater than that in the animals on TPN” value ([1]; highest dose (0.133 mg/kg daily s.c.), sacrifice on day 14, FIG. 2) was “approximately 50%”, the “histological section of the small bowel, villi and crypts” value ([2]; piglet on TPN, 0.133 mg/kg for 14 days, FIG. 6 compared to FIG. 4) was “villi and crypts are comparable to the animal receiving enteral nutrition” and the “V/C ratio of the small bowel” value ([2]; piglets on TPN, 0.133 mg/kg daily s.c., sacrifice on day 14, FIG. 3) was “completely preserved the V/C ratio to the same ratio seen in the animals on EN”.
